Experimental data from US9107879B1, “Methods of increasing the cytotoxicity of chemotherapeutic agents with multisubstrate inhibitors of histone, protein-lys, polyamine acetylation, and polyamine metabolism” (Vanderbilt University, priority 2010, dated 2015).

Columns and labels:
[1] = test system: H358 cells; experiment: trypan blue exclusion viability assay; format: cell-based; conditions: human
Method: Cells were either labeled immediately before treatment (starting DNA synthesis rate), or subjected to the indicated treatments and then pulsed on successive days until day 4. DNA synthesis is represented as the percent of starting DNA synthesis rate. Viability was determined for each treatment condition 24 hours post-start of treatment by the trypan blue exclusion assay, with percentages of viable cells indicated to the right of the graph. […]
Cell viability, measured 18 hours after the start of each treatment by the trypan blue exclusion assay, a measure of cellular membrane integrity, confirmed that single agent treatment with either 1a or camptothecin had essentially no effect on cell viability (≧96% viability for untreated cells or single agent-treated cells).
The present inventors used 96-well viability assays as described in Saadatmandi et al (Cancer Gene Therapy (2002) 9:930-9) to examine the effect of 1a on DNA synthesis in H358 cells, as well as the combined effects of 1a and chemotherapeutic agents. […] Following the 6-hour labeling, cells were harvested and incorporation of [^3H]-thymidine was determined by scintillation counting. […] We measured cell viability 24 hours after the start of each treatment by the trypan blue exclusions assay, a measure of cellular membrane breakdown.

[2] = test system: MCF7 breast cancer cells; conditions: 1a increasing concentrations; camptothecin 5 nM 18 hour
Method: (A) [^3H]-thymidine incorporation into DNA of H358 cells (left panel) or MCF-7 cells (right panel) during a 6 hour pulse ending at the indicated time points after initiation of treatment. Treatments were 50 μM 1a alone, 5 nM camptothecin alone (CPT, 18 hours), 50 μM 1a+5 nm CPT (18 hours). Control cells were left untreated. (B) 2-day 96-well viability assays of H358 cells (left panel) or MCF-7 cells (right panel) grown in presence of increasing concentrations of 1a (continuous), with or without an 18-hour treatment with 5 nM camptothecin (CPT). Cell viability, represented as a percent of untreated cell viability (i.e., no 1a, no CPT), was determined 2 days post-start of treatment by the MTS bioconversion assay (MTS=(3-(4,5′-dimethylthiazol-2-yl)-5-(3-carboxymethoxylphenyl-2-(4-sulfophenyl)-2H-tetrazolium salt). Each data point represents the average of triplicate wells. Assays were carried out under conditions such that untreated cells remained in exponential growth. (C) [^3H]-thymidine incorporation into DNA of H358 cells carried out as in part “A”. Treatment consisted of 1a alone (50 μM), or cisplatin (2 μM, 1 hour, 15 minutes) alone or together with 1a (Panel 1); or UVC (40 J/m^2), alone or together with 1a (Panel 2); or 5-fluorouracil (5FU, 2 μM, 18 hours) alone or together with 1a (Panel 3), or Taxotere™ (5 nM, 18 hours), alone or together with 1a (Panel 4). Control cells were left untreated. Symbols are as follows: (-◯-) untreated control; (-●-) 50 μM 1a, (-∇-) drug or UVC alone; (-▾-) combination 1a+drug or UVC.
Viability was measured 3 days after the start of treatment and is expressed as a percentage of control (untreated) cell viability.
Each point is average of triplicates.
Date of exp: 7-17-2010; located p.21 in Hat notebook: KB-2 (2010-2011).
Cells were plated in 96-well plates (3000 cells per well) and incubated 18 hours with or without 5 nM camptothecin (Sigma, St Louis, Mo.). Triplicate wells were then treated with varying doses of 1a (from 0-50 μM). Control cells received neither 1a nor camptothecin. 2-day viability was determined by the MTS assay as previously (Saadatmandi et al., 2002, Cancer Gene Therapy, 9: 830-9) and expressed as a percentage of control cell viability.
The present inventors carried out 96-well viability assays as we have previously described (Saadatmandi et al, Cancer Gene Therapy (2002) 9:830-9), in which MCF7 breast cancer cells were plated at 3000 cells per well. After overnight attachment, triplicate wells were treated with increasing doses of inhibitor 1a. Control wells were left untreated. After 3 days, cell viability was measured by the MTS assay, which measures the bioconversion of an uncolored substrate to a colored formazan derivative, and is proportional to cell number. […]

[3] = test system: BT20 breast cancer cell line (TNBC); experiment: 3-day viability assay; format: cell-based; conditions: spd-2a increasing doses; camptothecin 5 nM
Description: The effect of spd-2a on the BT20 breast cancer cell line derived form a spontaneous TNBC with wild-type BrCal was examined. […] Having previously established that spd-2a is a therapy sensitizer, the present inventors then examined the combined effects of spd-2a and camptothecin (the basis for the chemotherapeutic drug, Irinotecan).

| Structure (SMILES) | cell viability, trypan blue exclusion ([1]; 18 h) [%] | cell viability, trypan blue exclusion ([1]; 24 h) [%] | 2-day cumulative cell viability relative to untreated, single agent [2] | 3-day viability, single agent [3] |
| --- | --- | --- | --- | --- |
| CC(C)(COP(=O)(O)OP(=O)(O)OC[C@H]1O[C@@H](n2cnc3c(N)ncnc32)[C@H](O)[C@@H]1OP(=O)(O)O)[C@@H](O)C(=O)NCCC(=O)NCCSCC(=O)NCCCNCCCCN [1a, spermidine[N1]-CoA] | ≥ 96 | ≥ 96 | – | – |
| CC[C@@]1(O)C(=O)OCc2c1cc1n(c2=O)Cc2cc3ccccc3nc2-1 [camptothecin] | – | – | no effect | no effect |
